Test results reported in PMC5622171 (Nature Communications, 2017).

How the values were obtained:
Test in all cases: KINOMEscan kinase profiling
Assay type in all cases: binding
[1] = target: T1, IRAK1 (Homo sapiens, UniProt P51617); settings: read-out: %Inhibition by 10 μM SPA70
T1 construct: purchased DiscoverX (Ambit Biosciences) KINOMEscan
Description: (§1) Kinase inhibition profiling assays. The kinase inhibition profiling assay (KINOMEscan) was performed by Ambit Biosciences, now part of DiscoveryX (Fremont, CA) in accordance with the […]
(§2) published protocol20, 21. […] If the inhibition of a kinase was greater […]
(§3) dilutions) starting from 30 µM.

[2] = target: T2, NEK9 (Homo sapiens, UniProt Q8TD19); settings: read-out: %Inhibition by 10 μM SPA70
T2 construct: purchased DiscoverX (Ambit Biosciences) KINOMEscan
Description: as §1, §2, §3

[3] = target: T3, HPK1 (Homo sapiens, UniProt Q92918); settings: read-out: %Inhibition by 10 μM SPA70
T3 construct: purchased DiscoverX (Ambit Biosciences) KINOMEscan
Description: as §1, §2, §3

[4] = target: T4, BTK (Homo sapiens, UniProt Q06187)
T4 construct: purchased DiscoverX (Ambit Biosciences) KINOMEscan
Description: as §1, §2, §3

[5] = target: T5, TYRO3 (Homo sapiens, UniProt Q06418); settings: read-out: %Inhibition by 10 μM SPA70
T5 construct: purchased DiscoverX (Ambit Biosciences) KINOMEscan
Description: as §1, §2, §3

[6] = target: T6, CDK7 (Homo sapiens, UniProt P50613); settings: read-out: %Inhibition by 10 μM SPA70
T6 construct: purchased DiscoverX (Ambit Biosciences) KINOMEscan
Description: as §1, §2, §3

[7] = target: T7, FLT1 (Homo sapiens, UniProt P17948); settings: read-out: %Inhibition by 10 μM SPA70
T7 construct: purchased DiscoverX (Ambit Biosciences) KINOMEscan
Description: as §1, §2, §3

[8] = target: T8, RSK1(Kin.Dom.2-C-terminal) (Homo sapiens, UniProt Q15418); settings: read-out: %Inhibition by 10 μM SPA70
T8 construct: RSK1(Kin.Dom.2-C-terminal); purchased DiscoverX (Ambit Biosciences) KINOMEscan
T8 sequence (Q15418 392-735 limits assumed): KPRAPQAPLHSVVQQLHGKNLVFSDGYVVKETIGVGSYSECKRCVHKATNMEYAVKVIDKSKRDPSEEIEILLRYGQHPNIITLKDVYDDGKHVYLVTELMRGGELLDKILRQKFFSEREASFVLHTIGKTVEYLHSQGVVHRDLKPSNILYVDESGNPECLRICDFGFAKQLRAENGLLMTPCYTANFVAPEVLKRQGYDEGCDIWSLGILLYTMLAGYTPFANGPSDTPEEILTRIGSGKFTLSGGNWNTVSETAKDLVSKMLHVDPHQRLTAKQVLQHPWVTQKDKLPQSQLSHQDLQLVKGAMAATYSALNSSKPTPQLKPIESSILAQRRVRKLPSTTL
Description: as §1, §2, §3

[9] = target: T9, CSNK1E (Homo sapiens, UniProt P49674); settings: read-out: %Inhibition by 10 μM SPA70
T9 construct: purchased DiscoverX (Ambit Biosciences) KINOMEscan
Description: as §1, §2, §3

[10] = target: T10, JNK2 (Homo sapiens, UniProt P45984)
T10 construct: purchased DiscoverX (Ambit Biosciences) KINOMEscan
Description: as §1, §2, §3

[11] = target: T11, CLK4 (Homo sapiens, UniProt Q9HAZ1); settings: read-out: %Inhibition by 10 μM SPA70
T11 construct: purchased DiscoverX (Ambit Biosciences) KINOMEscan
Description: as §1, §2, §3

[12] = target: T12, ULK1 (Homo sapiens, UniProt O75385)
T12 construct: purchased DiscoverX (Ambit Biosciences) KINOMEscan
Description: as §1, §2, §3

[13] = target: T13, SRPK1 (Homo sapiens, UniProt Q96SB4); settings: read-out: %Inhibition by 10 μM SPA70
T13 construct: purchased DiscoverX (Ambit Biosciences) KINOMEscan
Description: as §1, §2, §3

[14] = target: T14, JAK1(JH1domain-catalytic) (Homo sapiens, UniProt P23458)
T14 construct: JAK1(JH1domain-catalytic); purchased DiscoverX (Ambit Biosciences) KINOMEscan
Description: as §1, §2, §3

[15] = target: T15, MST4 (Homo sapiens, UniProt Q9P289); settings: read-out: %Inhibition by 10 μM SPA70
T15 construct: purchased DiscoverX (Ambit Biosciences) KINOMEscan
Description: as §1, §2, §3

[16] = target: T16, PRKD2 (Homo sapiens, UniProt Q9BZL6); settings: read-out: %Inhibition by 10 μM SPA70
T16 construct: purchased DiscoverX (Ambit Biosciences) KINOMEscan
Description: as §1, §2, §3

[17] = target: T17, DCAMKL2 (Homo sapiens, UniProt Q8N568); settings: read-out: %Inhibition by 10 μM SPA70
T17 construct: purchased DiscoverX (Ambit Biosciences) KINOMEscan
Description: as §1, §2, §3

[18] = target: T18, EPHB6 (Homo sapiens, UniProt O15197); settings: read-out: %Inhibition by 10 μM SPA70
T18 construct: purchased DiscoverX (Ambit Biosciences) KINOMEscan
Description: as §1, §2, §3

[19] = target: T19, MLCK (Homo sapiens, UniProt Q32MK0); settings: read-out: %Inhibition by 10 μM SPA70
T19 construct: purchased DiscoverX (Ambit Biosciences) KINOMEscan
Description: as §1, §2, §3

[20] = target: T20, MYLK2 (Homo sapiens, UniProt Q9H1R3); settings: read-out: %Inhibition by 10 μM SPA70
T20 construct: purchased DiscoverX (Ambit Biosciences) KINOMEscan
T20 sequence (Q9H1R3 whole entry): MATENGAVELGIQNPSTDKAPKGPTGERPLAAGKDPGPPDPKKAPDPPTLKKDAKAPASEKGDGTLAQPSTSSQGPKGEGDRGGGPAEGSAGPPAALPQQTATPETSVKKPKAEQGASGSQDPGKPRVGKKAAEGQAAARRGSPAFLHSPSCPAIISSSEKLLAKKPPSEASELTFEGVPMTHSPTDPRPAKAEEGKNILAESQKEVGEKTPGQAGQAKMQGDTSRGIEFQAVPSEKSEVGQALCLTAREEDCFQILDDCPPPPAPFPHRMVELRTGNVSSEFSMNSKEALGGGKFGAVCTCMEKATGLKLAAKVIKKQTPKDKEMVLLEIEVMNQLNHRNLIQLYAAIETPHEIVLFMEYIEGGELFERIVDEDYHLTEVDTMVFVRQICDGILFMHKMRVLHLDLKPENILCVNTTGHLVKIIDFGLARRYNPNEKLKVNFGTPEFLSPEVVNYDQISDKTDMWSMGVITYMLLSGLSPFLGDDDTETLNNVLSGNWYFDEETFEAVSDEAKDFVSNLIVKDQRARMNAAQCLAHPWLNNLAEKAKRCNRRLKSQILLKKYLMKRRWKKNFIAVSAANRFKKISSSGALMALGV
Description: as §1, §2, §3

[21] = target: T21, CDKL1 (Homo sapiens, UniProt Q00532); settings: read-out: %Inhibition by 10 μM SPA70
T21 construct: purchased DiscoverX (Ambit Biosciences) KINOMEscan
Description: as §1, §2, §3

[22] = target: T22, SBK1 (Homo sapiens, UniProt Q52WX2); settings: read-out: %Inhibition by 10 μM SPA70
T22 construct: purchased DiscoverX (Ambit Biosciences) KINOMEscan
Description: as §1, §2, §3

[23] = target: T23, TEC (Homo sapiens, UniProt P42680); settings: read-out: %Inhibition by 10 μM SPA70
T23 construct: purchased DiscoverX (Ambit Biosciences) KINOMEscan
Description: as §1, §2, §3

[24] = target: T24, AURKC (Homo sapiens, UniProt Q9UQB9); settings: read-out: %Inhibition by 10 μM SPA70
T24 construct: purchased DiscoverX (Ambit Biosciences) KINOMEscan
Description: as §1, §2, §3

[25] = target: T25, YSK4 (Homo sapiens, UniProt Q56UN5); settings: read-out: %Inhibition by 10 μM SPA70
T25 construct: purchased DiscoverX (Ambit Biosciences) KINOMEscan
Description: as §1, §2, §3

[26] = target: T26, SNARK (Homo sapiens, UniProt Q9H093)
T26 construct: purchased DiscoverX (Ambit Biosciences) KINOMEscan
Description: as §1, §2, §3

[27] = target: T27, SRPK2 (Homo sapiens, UniProt P78362); settings: read-out: %Inhibition by 10 μM SPA70
T27 construct: purchased DiscoverX (Ambit Biosciences) KINOMEscan
Description: as §1, §2, §3

[28] = target: T28, ACVR2B (Homo sapiens, UniProt Q13705)
T28 construct: purchased DiscoverX (Ambit Biosciences) KINOMEscan
Description: as §1, §2, §3

[29] = target: T29, PCTK3 (Homo sapiens, UniProt Q07002); settings: read-out: %Inhibition by 10 μM SPA70
T29 construct: purchased DiscoverX (Ambit Biosciences) KINOMEscan
Description: as §1, §2, §3

[30] = target: T30, MRCKA (Homo sapiens, UniProt Q5VT25); settings: read-out: %Inhibition by 10 μM SPA70
T30 construct: purchased DiscoverX (Ambit Biosciences) KINOMEscan
T30 sequence (Q5VT25 whole entry): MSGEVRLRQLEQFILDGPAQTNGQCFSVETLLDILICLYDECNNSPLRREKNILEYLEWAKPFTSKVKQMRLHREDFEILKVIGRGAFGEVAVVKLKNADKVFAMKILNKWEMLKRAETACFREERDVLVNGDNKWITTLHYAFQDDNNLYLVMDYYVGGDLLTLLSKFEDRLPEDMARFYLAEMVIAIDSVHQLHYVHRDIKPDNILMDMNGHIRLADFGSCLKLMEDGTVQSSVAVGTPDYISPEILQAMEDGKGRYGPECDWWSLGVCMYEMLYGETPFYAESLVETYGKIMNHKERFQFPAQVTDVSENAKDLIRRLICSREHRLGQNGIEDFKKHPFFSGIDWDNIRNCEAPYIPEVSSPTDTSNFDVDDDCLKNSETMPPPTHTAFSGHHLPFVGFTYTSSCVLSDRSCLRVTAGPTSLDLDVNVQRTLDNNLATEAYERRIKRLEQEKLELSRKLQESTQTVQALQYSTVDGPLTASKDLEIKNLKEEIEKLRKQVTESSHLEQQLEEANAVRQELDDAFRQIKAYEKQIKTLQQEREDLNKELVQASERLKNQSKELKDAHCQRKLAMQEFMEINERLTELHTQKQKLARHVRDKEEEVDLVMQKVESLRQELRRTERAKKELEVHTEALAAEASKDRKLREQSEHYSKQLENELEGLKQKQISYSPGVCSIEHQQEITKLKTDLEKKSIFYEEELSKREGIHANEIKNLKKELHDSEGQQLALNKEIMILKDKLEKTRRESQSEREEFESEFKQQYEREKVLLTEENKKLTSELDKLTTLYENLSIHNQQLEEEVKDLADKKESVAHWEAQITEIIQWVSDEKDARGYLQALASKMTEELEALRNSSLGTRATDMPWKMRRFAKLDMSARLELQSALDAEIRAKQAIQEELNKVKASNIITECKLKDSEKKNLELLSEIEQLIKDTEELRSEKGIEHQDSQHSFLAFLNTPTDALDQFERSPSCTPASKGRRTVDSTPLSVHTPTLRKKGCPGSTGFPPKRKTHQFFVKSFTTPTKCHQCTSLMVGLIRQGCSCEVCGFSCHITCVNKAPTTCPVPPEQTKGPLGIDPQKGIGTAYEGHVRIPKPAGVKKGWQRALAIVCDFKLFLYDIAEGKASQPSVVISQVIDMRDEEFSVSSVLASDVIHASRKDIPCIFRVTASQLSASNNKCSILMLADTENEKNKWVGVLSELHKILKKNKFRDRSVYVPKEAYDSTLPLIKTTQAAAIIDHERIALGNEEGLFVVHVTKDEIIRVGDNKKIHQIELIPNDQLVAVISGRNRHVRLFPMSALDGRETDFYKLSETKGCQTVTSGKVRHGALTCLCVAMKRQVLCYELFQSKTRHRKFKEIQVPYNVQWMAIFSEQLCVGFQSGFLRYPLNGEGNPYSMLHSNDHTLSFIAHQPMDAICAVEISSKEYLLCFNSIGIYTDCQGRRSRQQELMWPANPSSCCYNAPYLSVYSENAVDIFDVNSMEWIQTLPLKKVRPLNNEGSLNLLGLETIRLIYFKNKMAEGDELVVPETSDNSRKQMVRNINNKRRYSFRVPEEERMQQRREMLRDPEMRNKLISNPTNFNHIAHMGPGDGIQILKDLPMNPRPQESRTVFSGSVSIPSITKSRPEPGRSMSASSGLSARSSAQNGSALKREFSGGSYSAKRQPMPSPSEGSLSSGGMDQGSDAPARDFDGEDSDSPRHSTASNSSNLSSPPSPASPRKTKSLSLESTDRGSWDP
Description: as §1, §2, §3

[31] = target: T31, MARK4 (Homo sapiens, UniProt Q96L34)
T31 construct: purchased DiscoverX (Ambit Biosciences) KINOMEscan
Description: as §1, §2, §3

[32] = target: T32, HUNK (Homo sapiens, UniProt P57058); settings: read-out: %Inhibition by 10 μM SPA70
T32 construct: purchased DiscoverX (Ambit Biosciences) KINOMEscan
Description: as §1, §2, §3

[33] = target: T33, PCTK1 (Homo sapiens, UniProt Q00536); settings: read-out: %Inhibition by 10 μM SPA70
T33 construct: purchased DiscoverX (Ambit Biosciences) KINOMEscan
T33 sequence (Q00536 whole entry): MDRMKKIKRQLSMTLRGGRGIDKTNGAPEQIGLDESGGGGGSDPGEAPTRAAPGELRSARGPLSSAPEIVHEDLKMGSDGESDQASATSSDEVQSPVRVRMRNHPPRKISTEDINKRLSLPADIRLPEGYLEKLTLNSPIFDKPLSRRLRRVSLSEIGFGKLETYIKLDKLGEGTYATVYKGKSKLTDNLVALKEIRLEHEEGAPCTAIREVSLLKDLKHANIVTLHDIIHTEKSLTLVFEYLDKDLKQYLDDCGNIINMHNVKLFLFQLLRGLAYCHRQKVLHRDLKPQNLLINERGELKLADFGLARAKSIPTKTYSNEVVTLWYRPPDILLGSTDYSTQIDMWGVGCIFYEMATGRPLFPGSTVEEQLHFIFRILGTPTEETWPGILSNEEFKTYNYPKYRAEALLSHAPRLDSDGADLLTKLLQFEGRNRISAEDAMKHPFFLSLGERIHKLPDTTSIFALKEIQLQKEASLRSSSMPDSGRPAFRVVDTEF
Description: as §1, §2, §3

[34] = target: T34, CLK1 (Homo sapiens, UniProt P49759); settings: read-out: %Inhibition by 10 μM SPA70
T34 construct: purchased DiscoverX (Ambit Biosciences) KINOMEscan
T34 sequence (P49759 whole entry): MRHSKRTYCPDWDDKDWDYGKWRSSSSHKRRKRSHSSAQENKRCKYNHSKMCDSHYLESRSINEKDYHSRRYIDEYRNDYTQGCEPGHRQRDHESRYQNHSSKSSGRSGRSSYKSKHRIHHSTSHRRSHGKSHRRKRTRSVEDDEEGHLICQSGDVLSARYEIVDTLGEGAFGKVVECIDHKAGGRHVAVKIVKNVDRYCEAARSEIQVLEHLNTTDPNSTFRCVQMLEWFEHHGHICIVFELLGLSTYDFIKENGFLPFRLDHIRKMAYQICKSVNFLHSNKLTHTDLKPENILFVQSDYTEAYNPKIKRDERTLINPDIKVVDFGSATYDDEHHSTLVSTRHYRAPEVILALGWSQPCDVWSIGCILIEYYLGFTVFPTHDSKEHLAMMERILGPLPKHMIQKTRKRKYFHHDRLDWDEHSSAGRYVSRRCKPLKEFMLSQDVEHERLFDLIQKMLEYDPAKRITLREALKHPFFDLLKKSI
Description: as §1, §2, §3

[35] = target: T35, NDR1 (Homo sapiens, UniProt Q15208); settings: read-out: %Inhibition by 10 μM SPA70
T35 construct: purchased DiscoverX (Ambit Biosciences) KINOMEscan
Description: as §1, §2, §3

[36] = target: T36, PRKD3 (Homo sapiens, UniProt O94806); settings: read-out: %Inhibition by 10 μM SPA70
T36 construct: purchased DiscoverX (Ambit Biosciences) KINOMEscan
Description: as §1, §2, §3

[37] = target: T37, ANKK1 (Homo sapiens, UniProt Q8NFD2); settings: read-out: %Inhibition by 10 μM SPA70
T37 construct: purchased DiscoverX (Ambit Biosciences) KINOMEscan
Description: as §1, §2, §3

[38] = target: T38, RAF1 (Homo sapiens, UniProt P04049); settings: read-out: %Inhibition by 10 μM SPA70
T38 construct: purchased DiscoverX (Ambit Biosciences) KINOMEscan
Description: as §1, §2, §3

[39] = target: T39, PAK6 (Homo sapiens, UniProt Q9NQU5); settings: read-out: %Inhibition by 10 μM SPA70
T39 construct: purchased DiscoverX (Ambit Biosciences) KINOMEscan
T39 sequence (Q9NQU5 whole entry): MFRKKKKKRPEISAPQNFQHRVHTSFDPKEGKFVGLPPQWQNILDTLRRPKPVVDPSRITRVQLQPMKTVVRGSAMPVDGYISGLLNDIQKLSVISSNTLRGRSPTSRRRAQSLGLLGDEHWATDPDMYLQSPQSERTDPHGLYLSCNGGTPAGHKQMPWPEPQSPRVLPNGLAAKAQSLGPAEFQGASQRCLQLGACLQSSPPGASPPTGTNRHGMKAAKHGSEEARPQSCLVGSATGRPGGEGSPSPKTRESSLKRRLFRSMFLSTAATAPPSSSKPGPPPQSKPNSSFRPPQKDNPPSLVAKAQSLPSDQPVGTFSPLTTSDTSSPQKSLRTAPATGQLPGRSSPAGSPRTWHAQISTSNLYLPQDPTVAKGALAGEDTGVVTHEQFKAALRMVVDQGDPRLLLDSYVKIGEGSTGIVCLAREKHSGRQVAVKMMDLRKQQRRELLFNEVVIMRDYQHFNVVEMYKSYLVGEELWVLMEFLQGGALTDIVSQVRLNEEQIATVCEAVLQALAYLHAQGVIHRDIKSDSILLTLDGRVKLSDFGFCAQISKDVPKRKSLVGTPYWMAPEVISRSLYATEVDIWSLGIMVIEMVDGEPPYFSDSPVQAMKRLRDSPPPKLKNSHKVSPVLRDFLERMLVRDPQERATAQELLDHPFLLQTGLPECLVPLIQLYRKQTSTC
Description: as §1, §2, §3

[40] = target: T40, MKNK1 (Homo sapiens, UniProt Q9BUB5); settings: read-out: %Inhibition by 10 μM SPA70
T40 construct: purchased DiscoverX (Ambit Biosciences) KINOMEscan
Description: as §1, §2, §3

[41] = target: T41, MYLK4 (Homo sapiens, UniProt Q86YV6); settings: read-out: %Inhibition by 10 μM SPA70
T41 construct: purchased DiscoverX (Ambit Biosciences) KINOMEscan
Description: as §1, §2, §3

[42] = target: T42, ACVR1B (Homo sapiens, UniProt P36896); settings: read-out: %Inhibition by 10 μM SPA70
T42 construct: purchased DiscoverX (Ambit Biosciences) KINOMEscan
Description: as §1, §2, §3

T1 sequence (P51617 whole entry): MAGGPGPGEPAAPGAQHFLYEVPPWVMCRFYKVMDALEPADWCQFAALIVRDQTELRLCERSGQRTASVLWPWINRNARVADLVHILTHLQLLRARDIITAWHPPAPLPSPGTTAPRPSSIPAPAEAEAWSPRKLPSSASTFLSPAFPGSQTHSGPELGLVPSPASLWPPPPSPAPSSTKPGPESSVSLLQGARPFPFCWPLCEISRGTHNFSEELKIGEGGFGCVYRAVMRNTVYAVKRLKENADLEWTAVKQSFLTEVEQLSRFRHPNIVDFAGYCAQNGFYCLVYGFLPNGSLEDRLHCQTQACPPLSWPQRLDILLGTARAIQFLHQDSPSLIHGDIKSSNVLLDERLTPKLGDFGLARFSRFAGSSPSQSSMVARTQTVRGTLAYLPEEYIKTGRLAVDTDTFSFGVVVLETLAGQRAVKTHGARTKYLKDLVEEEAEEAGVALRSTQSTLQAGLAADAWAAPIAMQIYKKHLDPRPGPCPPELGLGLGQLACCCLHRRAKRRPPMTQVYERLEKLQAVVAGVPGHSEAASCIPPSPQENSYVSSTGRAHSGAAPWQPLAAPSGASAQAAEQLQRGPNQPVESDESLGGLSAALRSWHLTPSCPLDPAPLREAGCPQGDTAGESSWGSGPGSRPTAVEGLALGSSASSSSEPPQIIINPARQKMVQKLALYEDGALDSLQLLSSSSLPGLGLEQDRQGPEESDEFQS

COc1ccc(OC)c(-n2nnc(S(=O)(=O)c3ccc(C(C)(C)C)cc3)c2C)c1 [SPA70]
inhibition at 10 µM [1]: 0% | inhibition at 10 µM [2]: 0% | inhibition at 10 µM [3]: 1% | %Inhibition by 10 μM SPA70 [4]: 23% | inhibition at 10 µM [5]: 0% | inhibition at 10 µM [6]: 19% | inhibition at 10 µM [7]: 0% | inhibition at 10 µM [8]: 12% | inhibition at 10 µM [9]: 0% | %Inhibition by 10 μM SPA70 [10]: 0% | inhibition at 10 µM [11]: 4% | %Inhibition by 10 μM SPA70 [12]: 5% | inhibition at 10 µM [13]: 0% | %Inhibition by 10 μM SPA70 [14]: 19% | inhibition at 10 µM [15]: 15% | inhibition at 10 µM [16]: 9% | inhibition at 10 µM [17]: 0% | inhibition at 10 µM [18]: 0% | inhibition at 10 µM [19]: 0% | inhibition at 10 µM [20]: 0% | inhibition at 10 µM [21]: 9% | inhibition at 10 µM [22]: 0% | inhibition at 10 µM [23]: 0% | inhibition at 10 µM [24]: 2% | inhibition at 10 µM [25]: 0% | %Inhibition by 10 μM SPA70 [26]: 8% | inhibition at 10 µM [27]: 0% | %Inhibition by 10 μM SPA70 [28]: 0% | inhibition at 10 µM [29]: 9% | inhibition at 10 µM [30]: 0% | %Inhibition by 10 μM SPA70 [31]: 0% | inhibition at 10 µM [32]: 15% | inhibition at 10 µM [33]: 4% | inhibition at 10 µM [34]: 0% | inhibition at 10 µM [35]: 0% | inhibition at 10 µM [36]: 0% | inhibition at 10 µM [37]: 0% | inhibition at 10 µM [38]: 19% | inhibition at 10 µM [39]: 4% | inhibition at 10 µM [40]: 44% | inhibition at 10 µM [41]: 0% | inhibition at 10 µM [42]: 0%
